# Source: patent publication US6864356B2, “Sixteen amino acid of the antineoplastic protein (ANUP) as a pharmacologically active anti-tumor agent” (priority 1997, dated 2005)
# pIC50: −log10 of the molar value. Non-standard residues stand in square brackets, D forms with d. No end group written: not given here. pGlu = O=C1CC[C@@H](C(=O)O)N1
# Tests used:
# tumor cells = settings: electron microscopy (Struve et al. 1990); cited from earlier work
# [1] = system: human breast tumor cell line (MDA 231); test: in vitro antitumor (tumor killing) assay, neutral red dye, 96 well plates; assay type: cell-based; settings: MDA 231 cells
# Protocol: The antitumor activity of the peptide (P16) was assayed against the human breast tumor cell line (MDA 231) and its activity was compared to the in vitro antitumor effect of the “pure” protein (ANUP).
# The assay for the pharmacological antitumor activities were performed as follows utilizing 96 well plates—
# 20,300-30,000 human breast tumor cells in L-15 medium (200 μl) containing 2.5% fetal calf serum and 100 μg gentamycin per ml (complete medium) were incubated at 37° in air for 120 hours; after this incubation period 50 μl of serially diluted P16 and ANUP were added to each well. […] The solutions were diluted in complete medium containing 0.05% SDS to a concentration of 350 μg per ml.
# Dilution plates were prepared as follows:
# 100 μl of complete medium were added to each well and 50 μl of diluted P16 and ANUP were added to each well in row A thus 1.3 dilution was accomplished; 50 μl were serially diluted in the 100 μl of medium in rows B through H. Thus the range of concentrations were from 6 μg to 2 mg when 50 μl each dilution series were added to the 200 μl of the complete medium containing the MDA cells. The plates were incubated for an additional 96-120 hours. The medium was poured off and after a 90-minute incubation with 50 μl neutral red dye (0.5 ml neutral red (0.25% ethanol (0.6 ml) diluted 5.5 saline-0.16 mm HCl) the cells were washed twice with PBS (phosphate buffer saline) at room temperature. The concentration of living cells (since only living cells absorb the dye) was determined after adding 100 μl lysing buffer (50% ethanol in 0.05 m NaH2 PO4) the concentration of neutral red released in each well was determined using a Dynetech plate reader set at […]. A unit of activity was defined as the concentration of ANUP and P16 for 50% killing.
substance,measurement,setting,value
"synthetic hexadeca peptide (16 L-amino acids), partial N-terminal sequence of ANUP: Pyroglu-Leu-Lys-Cys-Tyr-Thr-Cys-Lys-Glu-Pro-Met-Thr-Ser-Ala-Ala-Cys (SEQ ID NO: 1) ([pGlu]LKCYTCKEPMTSAAC; cysteine pairing not given here) [P16]",effect on tumor cells by electron microscopy,tumor cells,complete degradation of the cells
same,Fraction of the Activity relative to ANUP,[1]; + 0.005% SDS,0.04
same,Fraction of the Activity relative to ANUP,[1]; + 0.02% SDS,0.50
same,Fraction of the Activity relative to ANUP,[1]; + 0.05% SDS,0.50
same,antitumor activity in the absence of SDS,[1]; absence of SDS,neither the peptide nor the protein showed any antitumor activity
same,"activity compared to the protein (ANUP), molar basis",[1]; in vitro,about 50%
same,pIC50,"[1]; medium containing SDS, 96-120 hours incubation, read-out: 50% end point (concentration for 50% killing)",7.66
same,Fraction of the Activity relative to ANUP,[1]; no SDS,± no Activity
same,weight of peptide required relative to weight of protein (ANUP) for equal activity,[1]; weight basis,one tenth
